Experiment: Inhibition of recombinant PP1

Row | Structure (SMILES) | IC30 [µM]
1 | C=C1C(=O)N[C@H](C)C(=O)N[C@@H](CCCNC(=N)N)C(=O)N[C@@H](C(=O)O)CC(=O)N[C@@H](CCCNC(=N)N)C(=O)N[C@@H](/C=C/C(C)=C/[C@H](C)[C@H](Cc2ccccc2)OC)[C@H](C)C(=O)N[C@@H](C(=O)O)CCC(=O)N1C | 7.8
2 | CNC(=O)CC[C@@H](NC(=O)[C@@H](C)[C@H](/C=C/C(C)=C/[C@H](C)[C@H](Cc1ccccc1)OC)NC(=O)[C@H](CCCNC(=N)N)NC(=O)C[C@@H](NC(=O)[C@H](CCCNC(=N)N)NC(=O)[C@@H](C)NC(=O)C(C)=O)C(=O)O)C(=O)O | 0.8

Source: ChEMBL document CHEMBL1146491, “Seco[D-Asp3]microcystin-RR and [D-Asp3,D-Glu(OMe)6]microcystin-RR, two new microcystins from a toxic water bloom of the cyanobacterium planktothrixrubescens” (J Nat Prod, 2004)
